Article PMC3390896, “The Distribution and Physiological Effects of the Myoinhibiting Peptides in the Kissing Bug, Rhodnius Prolixus” (Frontiers in Neuroscience, 2012)
Like-named read-outs stand apart in the source and are kept apart here. Where a SMILES comes first, the peptide text is derived from it. Bridges are numbered along the chain shown (N, C = ends). Where no end group is shown, it is not given here.

Legend:
R. prolixus hindgut = R. prolixus hindgut contraction assay (spontaneous contractions, force transducer); set-up: species or system Rhodnius prolixus; conditions: mean of five to six preparations
From the text: Hindguts from female adult R. prolixus were dissected under R. prolixus saline, leaving a small portion of the ventral cuticle attached to the posterior end. The preparation was placed in a shallow trough molded into a Sylgard-coated petri dish. The preparation was secured to the dish by pinning the cuticle using minuten pins. The anterior end of the hindgut was attached to an AE875 miniature force transducer (Aksjeselskapet Mikro-Elektronikk, Norway) using a strand of silk. Muscle activity was monitored on a linear flat-bed chart recorder connected to a force transducer through an amplifier. Isolated hindguts were maintained in 200 μL of saline at room temperature. Working concentrations of Rhopr-MIP-4 or Rhopr-MIP-7 were applied by removing 100 μL of saline and replacing it with the same volume of peptide that yielded final concentrations of 10^−11 to 10^−6 M. The peptides were washed from the preparation using saline between trials. The effects of the peptides on hindgut contractions were monitored over a 5 min time period.
Responses to Rhopr-MIP-4 and Rhopr-MIP-7 were quantified by dividing the frequency of contractions during the second minute after application, by the frequency of contractions during the 1 min interval prior to peptide application.

[1] = biological target: T1, Drosophila melanogaster sex peptide receptor (Drome-SPR) (Drosophila melanogaster, UniProt Q8SWR3); test: Functional aequorin-based Drome-SPR assay in CHO-WTA11 cells; type: cell-based; conditions: CHO cells coexpressing aequorin, Gα16 and Drosophila SPR; aequorin luminescence; three independent measurements done in triplicate
T1 construct: expressed in transfected cells; host or cells: CHO-WTA11 cells (expressing apoaequorin and Gα16)
T1 sequence (Q8SWR3 1-435): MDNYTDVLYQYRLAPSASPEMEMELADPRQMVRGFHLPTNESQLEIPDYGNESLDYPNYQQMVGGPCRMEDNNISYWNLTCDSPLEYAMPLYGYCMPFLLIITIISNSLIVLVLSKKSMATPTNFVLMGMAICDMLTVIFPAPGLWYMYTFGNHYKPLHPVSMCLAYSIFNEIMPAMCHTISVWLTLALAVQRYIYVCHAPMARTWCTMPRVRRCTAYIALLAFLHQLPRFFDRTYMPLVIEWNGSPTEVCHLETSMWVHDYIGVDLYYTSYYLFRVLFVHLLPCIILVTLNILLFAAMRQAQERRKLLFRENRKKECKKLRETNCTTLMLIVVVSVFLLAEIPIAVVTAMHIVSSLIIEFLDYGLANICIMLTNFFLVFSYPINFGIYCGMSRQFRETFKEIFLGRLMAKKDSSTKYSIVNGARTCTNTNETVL
Description: Drome-SPR expression vector (described by Poels et al., [2010]) transfected and mock transfected (negative control) CHO-WTA11 cells (expressing apoaequorin and Gα16) were grown until 90% confluency, detached using PBS with 100 μM EDTA, spun (6 min, 150 g) and resuspended at 5 × 10^6 cells/mL in D-MEM/F-12 without phenol red supplemented with 0.1% BSA. “Coelenterazine h” (Invitrogen) was added to a concentration of 5 μM and the cells were incubated in the dark at room temperature for 3–4 h. After coelenterazine loading, cells were diluted 10-fold and incubated for 30 min. Test compounds were dissolved in 50 μL D-MEM/F-12 supplemented with 0.1% BSA and dispensed in triplicate into the wells of a white 96-well plate. Light emission was recorded (Mithras LB940, Berthold) for 30 s immediately after injection of 50 μL cell suspension into each well. Cells were then lysed by a second injection of 50 μL 0.3% Triton X-100 and monitored during 8 s. Data were collected using MikroWin2000 (Mikrotek Laborsysteme Gmbh).

L. migratoria hindgut = conditions: ref Schoofs et al., [1991]; cited from earlier work
From the text: As shown in many insects (and as indicated by their name) MIPs are inhibitory of visceral muscle contraction. Thus, in R. prolixus, MIPs inhibit contractions of the hindgut in a dose-dependent manner. This is true for Rhopr-MIP-4 and for Rhopr-MIP-7. […] The thresholds for these Rhopr-MIPs were approximately the same. These threshold concentrations are lower than the threshold concentrations determined for the suppression of hindgut muscle contractions in L. migrator ...

[2] = biological target: T1, Drosophila melanogaster sex peptide receptor (Drome-SPR); set-up: method as in Poels et al., [2010]; conditions: same aequorin assay; ref Poels et al., [2010]; cited from earlier work
Description: The activity profiles of Rhopr-MIP-4 and -7 were tested in the functional aequorin-based Drome-SPR assays (Figure 5).

[3] = frequency in second minute after application divided by frequency in 1 min before, read-out: IC50 for frequency of spontaneous hindgut contractions
[4] = isolated hindgut of female adult R. prolixus, saline, room temperature, read-out: IC50 for amplitude of spontaneous hindgut contractions

Compound | IC50 (R. prolixus hindgut; [3]) [nM] | IC50 (R. prolixus hindgut; [4]) [nM] | EC50 [1] [nM] | threshold concentration for suppression of hindgut muscle contractions (L. migratoria hindgut) [nM] | EC50 [2] [nM]
CC(C)C[C@H](NC(=O)[C@H](CC(=O)O)NC(=O)[C@H](CO)NC(=O)[C@H](Cc1c[nH]c2ccccc12)NC(=O)[C@H](C)N)C(=O)N[C@@H](CCC(N)=O)C(=O)N[C@@H](CO)C(=O)N[C@@H](CO)C(=O)NCC(=O)N[C@@H](Cc1c[nH]c2ccccc12)C(N)=O [Rhopr-MIP-4] (H-AWSDLQSSGW-NH2) | ~20 | ~10 | 53 | – | –
CC(C)C[C@H](NC(=O)[C@H](CO)NC(=O)[C@H](CC(N)=O)NC(=O)[C@H](Cc1c[nH]c2ccccc12)NC(=O)[C@H](C)N)C(=O)N[C@@H](Cc1c[nH]cn1)C(=O)NCC(=O)NCC(=O)N[C@@H](Cc1c[nH]c2ccccc12)C(N)=O [Rhopr-MIP-7] (H-AWNSLHGGW-NH2) | ~20 | ~100 | 0.59 | – | –
AWQDLNAGW-NH2 [Lom-MIP] | – | – | – | 1.8 | –
Drome-SP: Drosophila sex peptide, 36 amino acids with a core W(X8)W and a C-terminal disulfide bridge (WEWPWNRKPTKFPIPSPNPRDKWCRLNLGPAWGGRC; disulfide 24-36 (inferred); UniProt P05623 20-55, looked up) | – | – | – | – | ~15
